Measurements taken from patent US8377478B2, “Solid detergent composition” (Innospec Limited, priority 2007, dated 2013).

Columns and labels:
Assay type in all cases: physicochemical
[1] = Appearance of the materials observed periodically over 72 hours
Experimental: The appearance of each of the materials was observed periodically over 72 hours. The observations are recorded in table 2.

[2] = Increase in mass of the samples over time
Source text: Table 3 show how the samples increased in mass over time.

[3] = Solubility: EDDS content of a saturated solution in water; conditions: room temperature, stirred overnight, as free EDDS, ignoring counter ion
Experimental: The solubility of each sample was measured as follows: An excess of solid material was added to 5 ml of water and stirred overnight at room temperature. The solution was filtered and the filtrate analysed for EDDS content by HPLC. The solubility values given in table 4 refer to the amount of free EDDS or succinate ion present and ignore the mass of any associated counter ion.

Appearance after 48 hr [1]	Appearance after 72 hr [1]	Appearance after 24 hr ([1]; cell in the 24 hr column marked (2 hr))	Initial Appearance [1]	% increase in mass after 72 hr [2]	Appearance after 24 hr ([1]; after 24 hr)	EDDS content of a saturated solution solubility [3]	Compound
Very Sticky	Very Sticky	Sticky Solid	Free flowing	25%			O=C1CCC(=O)ON2CCN(O1)OC(=O)CCC(=O)O2.[Na].[Na].[Na] [Na3EDDS, trisodium ethylenediamine disuccinate]
Free flowing	Free flowing		Free flowing	0.10%	Free flowing	164300 mg/kg	O=C([O-])CC(NCCNC(CC(=O)[O-])C(=O)[O-])C(=O)[O-].[Mg+2].[Mg+2] (centres unmarked) [Example A]
Slightly	Slightly		Free flowing	8.81%	Slightly	10100 mg/kg	O=C([O-])CC(NCCNC(CC(=O)[O-])C(=O)[O-])C(=O)[O-].[Ca+2].[Ca+2] (centres unmarked) [F]
